Experimental data from patent publication US9439430B2, “Method of controlling resistant harmful plants” (priority 2012, dated 2016).

What follows are compounds tested on AMATA (assay: Greenhouse test, pre-emergence (PE) soil application). Conditions: group (B) compound alone, 20 g of AS/ha.
Format: in vivo, Amaranthus rudis
Source text: The 1:1 mixture of the two soil types was used specifically for cultivating small-seeded dicotyledonous weed since the standard field soil on its own tends to silt up, which may have an adverse effect on the emergence of small-seeded weeds. The resistances mentioned in the tables were confirmed beforehand in standard monitoring experiments. Nevertheless, the origins examined may have additional, hitherto unconfirmed resistances to various mechanisms of action.
The pots were then cultivated in a greenhouse (12-16 h light, temperature day 20-22° C., night 15-18° C.) until the time of application. The pots were treated at various BBCH stages of the seeds/plants on a laboratory track sprayer with spray liquors comprising the compositions according to the invention, mixtures of the prior art or the individual components. Application of the active compounds or active compound combinations and wetting agents formulated as WG, WP, EC or otherwise was carried out at the appropriate growth stages of the plants. The amount of water used for spray application was 100-600 l/ha. After the treatment, the plants were returned to the greenhouses and fertilized and watered as required. The pots were cultivated in a greenhouse (12-16 h light, temperature day 20-22° C., night 15-18° C.).
3 weeks after the application, the foliar effect was evaluated on a scale of 0-100%:
0%=no noticeable effect compared to untreated plants
100%=full effect compared to untreated plants
The following abbreviations were used: • BBCH the BBCH code provides information about the morphological development stage of a plant. Officially, the abbreviation denotes the Biologische Bundesanstalt, Bundessortenamt and CHemische Industrie [Federal Biological Institute for Agriculture and Forestry, Federal Office for Crop Plant Varieties, Chemical Industry]. The range of BBCH 00-10 denotes the germination stages of the seeds until surface penetration. […]

Compound	effect on AMATA resistant - group B (TSR), C1 (TSR)
COc1cc(OC)nc(NC(=O)NS(=O)(=O)c2ncccc2C(F)(F)F)n1 [(B1), flazasulfuron]	60
COc1cc(OC)nc(NC(=O)NS(=O)(=O)c2cc(NC=O)ccc2C(=O)N(C)C)n1 [(B2), foramsulfuron]	40
CCS(=O)(=O)c1cccnc1S(=O)(=O)NC(=O)Nc1nc(OC)cc(OC)n1 [(B3), rimsulfuron]	60
